Experiments:
[1] = target: MDA-9/IGF-1R interactions (Homo sapiens, UniProt O00560); assay: co-immunoprecipitation in DU145 and ARCaPM cells; format: cell-based; details: PDZ1i for 6 h
Protocol: FIGS. 17A-17H. Effect of PDZ1i on invasion, MDA-9/IGF-R1 interaction and IGF-R1, STAT3 and SRC phosphorylation. FIG. 17A) Different cancer cells (25,000 cells/well) from various anatomic origins were pre-treated with either DMSO (vehicle) or PDZ1i (dose as indicated) and invasion ability was assayed using modified Boyden Chamber according to the manufacturer's instructions. Photomicrographs were taken at 10× magnification and quantification of the results of three independent experiments is provided in the graphs. The data presents mean±S.D. B) The designated cells were treated with DMSO or PDZ1i and invasion properties were determined using a modified Boyden Chamber assay (BD bioscience). RWPE-1 mda-9: mda-9 transiently overexpressing cell line. […] FIG. 17E) Cells were growth starved for 24 h and treated with either DMSO or PDZ1i (dose indicated in μM) for 6 h. Cells were treated with human recombinant IGFBP-2 (hIGFBP-2, 10 ng/ml) for 2 h, lysates were prepared and western blot analysis was conducted with specific antibodies. FIG. 17F) Cells were serum-starved for 24 h and treated with either DMSO or PDZ1i (20 μM) for 6 h. […] Cells were treated with human recombinant […] (hIGFBP-2, 1 ng/ml) for 2 h, cell lysates were prepared and analyzed by western blotting. […]
Next, the effect of PDZ1i on MDA-9 and IGF-1R interactions was determined. […]

[2] = tested on: RM1-Luc cells; assay: RM1-Luc intracardiac metastasis model; format: in vivo, C57BL/6 mice; details: I.P., 3 injections/first week
Protocol: FIG. 19A-19F. PDZ1i suppresses prostate cancer metastasis and tumor progression. FIG. 19A) Survival data for athymic nude mice in which DMSO or PDZ1i pre-treated ARCaPM cells were injected. FIG. 19B) Survival data for athymic nude mice which were injected with (n=5, each group) ARCaPM-Luc (1×10^6 cells in 100 μl saline) through an intracardiac route. Mice received either vehicle or PDZ1i every alternative day (9 injections during the first […]) and maintained until they needed to be euthanized. FIG. 19C) Survival data for C57BL/6 mice injected through the intracardiac route with RM1-Luc. Vehicle or PDZ1i was administered through intraperitoneal injection every alternate day (total 3 injections during the first week). Survival curves were generated using 6 control vehicle-treated and 5 PDZ1i-treated. Kaplan—Meier survival curves were prepared using Graph Pad software. […] Graphical representation of the average prostate weights from control and treated groups. FIG. 19E and FIG. 19F) Photomicrographs representing the histological changes in prostate sections obtained from 6-month old Hi-Myc mice receiving either vehicle (FIG. 19E) or PDZ1i (FIG. 19F). To evaluate potential therapeutic efficacy of PDZ1i four sets of in vivo experiments were conducted. […]

[3] = tested on: EGFR; assay: EGFR activation in PC cells; format: cell-based
Protocol: Considering the key role of MDA-9/IGF-1R interactions in STAT-3 activation, which has a decisive impact on PC progression, small molecule inhibitors that bind to MDA-9 were tested for their ability to specifically interrupt MDA-9/IGF-1R interactions thereby affecting STAT3 activation and PC invasion. […] In PC cells, PDZ1i-mediated downregulation of c-Src activation is partially IGF-1R dependent. Another tyrosine kinase, EGFR, which is also an interacting partner of MDA-9, has been reported to activate c-Src in PC.

MDA-9/IGF-1R interactions, sequence (O00560 2-298 limits assumed): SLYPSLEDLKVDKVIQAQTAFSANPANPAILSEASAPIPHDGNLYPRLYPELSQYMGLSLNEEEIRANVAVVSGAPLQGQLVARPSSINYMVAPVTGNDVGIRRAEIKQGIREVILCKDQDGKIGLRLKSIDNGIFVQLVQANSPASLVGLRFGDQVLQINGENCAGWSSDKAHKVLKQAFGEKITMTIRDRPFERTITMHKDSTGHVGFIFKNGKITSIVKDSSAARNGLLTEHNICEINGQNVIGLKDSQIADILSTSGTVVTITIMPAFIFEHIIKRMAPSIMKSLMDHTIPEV

SMILES: Cc1cc(NC(=O)c2nc3[nH]c4c(c(=O)n3n2)CCC4)c(C)cc1NC(=O)CCc1nnc(-c2ccccc2)o1 [113B7, N-(2,5-dimethyl-4-(3-(5-phenyl-1,3,4-oxadiazol-2-yl)propanamido)phenyl)-8-oxo-5,6,7,8-tetrahydro-4H-cyclopenta[d][1,2,4]triazolo[1,5-a]pyrimidine-2-carboxamide]
- MDA-9/IGF-1R interaction [1]: selectively inhibits
- tumor burden in the lungs [2]: significantly reduced the tumor burden in the lungs
- EGFR activation [3]: did not have any effect
